Marks after values point to notes of the source that are not given here.
Legend:
[1] = tested on: Staphylococcus aureus MRSABAA-42; assay: Bronchus pneumonia mice infected by Staphylococcus aureus MRSA BAA-42, treated by atomization inspiring; format: in vivo; details: for survival rate (%): 14 days; for bacterial number: mice lung
Excerpt: A, atomization sucks gene recombinant Human Lysozyme (HLZ) cured bronchus pneumonia mice infected by Staphylococcus aureus MRSABAA-42
Choose the test lawn, after washing with the physiological saline, correcting by McB tubes for comparative tests bacterium solution concentration 2#MCF, turbidity of 2.7×10^11 CFU/ml, diluted with physiological saline separately into 10^−1, 10^−2, 10^−3 bacterium solution, drip the nose to infect for mice respectively (anaesthetize the mice with the pentobarbital first, 30 mg/kg, ip.), 0.05 ml a mouse. Observed the mice body changing, and killed parts of mice after infecting 48 h, fetch the whole lung to tissue homogenate, 10 times diluted by physiological saline, draw 0.1 m1 to MH agar plate surface, to cultivate last night 35° C., Gram staining, test under microscope, and count plate. At the same time recorded the number of death mice, and collect some mice tracheas, bronchus, lung tissue and do pathology tissue observing.
It is called medial lethal dose (LD50) that bacterium amount caused mice appearing lung pharmacology change and 50% died. LD50was used as experimental treatment amount.
Infected mice is divided into 10 groups at random according to the weight, 30 every groups.
Designed dosage: The concentration of recombinant human lysozyme medicine was 15000 u/ml as in clinical atomization therapy. Its dose was 15000 u per time and administrated one time everyday, I.e 0.5 mg per time everyday. The dose was 1.3×10-3 mg a mice (counted by weight of 20 g). […] To ensure the breathing amount of lysozyme, the breathing time were extended for 0.5 hour. Based on 0.5 mg/ml, the concentration of 0.25 mg/ml, 1.0 mg/ml and 2.0 mg/ml were set respectively as treatment dose.
The same group mice were put into the ultrasonic atomizer and then treated with human lysozyme atomized in the compression sprayer (PARL.BOY), twice a day, 5 days in succession.
Every group, from the infected day to calculae, the animal incidence and death were recorded 14 days in succession. Every group collected 2-3 mice and killed them the 14th day after infecting, did bacteriology detection after lung homogenate, killed surplus animal to fetch the trachea, bronchus, fixed in 10% of the formaldehyde solution after weighing, did pathology check.
The bacterial culture: A part of mice were killed after infecting 24 h, fetched the whole lung weighting, added 2 ml degerming PBS solution 10 times diluted, draw 0.1 mL to MH agar plate surface, to cultivate last night 35° C., counted in the cultivation plateform of 30-300 CF, if the two close level tissue fluid is 30-300 CFU, counted the low density (make 3 plateforms at the same time each tissue fluid, calculate the average). Collected 2 mice to do bacterial culture in every group at random in 5, 7, 14 days after administration.
Pathology detection: After dissecting the mice, observed the trachea, bronchus, syncretio of lung, chest wall and membrana pleuralis, the volume of lung and size of lung focus, the lung surface was congested, hydroncus, consolidation and atelectasis by the naked eye. Took out the trachea, bronchus and the whole lung tissue to fixed with 10% of the formaldehyde solution, draw materials.

[2] = tested on: Staphylococcus aureus MRSABAA-42; assay: as above; format: in vivo; details: for accumulative survival number: 30 mice; for survival elevation rate (%): versus infected model group
[3] = 0.25 mg/ml atomization inspired, listed as gene recombinant human lysozyme
[4] = 0.25 mg/ml atomization inspired, listed as recombinant human lysozyme
[5] = 0.25 mg/ml atomization inspired
[6] = 0.25 mg/ml atomization inspired, 14 days
[7] = 0.5 mg/ml atomization inspired, 14 days

Q: What does the source list for “Human lysozyme: gene recombinant Human Lysozyme (HLZ), active unit 30000 u/mg, batch number 020110; given atomized / as aerosol”?
A: survival rate (%) [1, 3]: 40%; survival rate (%) [1, 4]: 40%; average survival day (day, x ± s) [1, 3]: 9.30 ± 4.08 days; average survival day (day, x ± s) [1, 4]: 9.30 ± 4.08 days; Death number(piece) ([1]; 0.5 mg/ml atomization inspired, day 7): 4 piece; average survival day (day, x ± s) ([1]; 0.5 mg/ml atomization inspired, listed as gene recombinant human lysozyme): 10.3 ± 3.77 days; average survival day (day, x ± s) ([1]; 0.5 mg/ml atomization inspired, listed as recombinant human lysozyme): 3.77 ± 10.3 days; survival number ([1]; 1 mg/ml atomization inspired, 30 mice): 17; average survive days ([1]; 1 mg/ml atomization inspired, listed as gene recombinant human lysozyme): 11.2 ± 3.36 days; average survive days ([1]; 1 mg/ml atomization inspired, listed as recombinant human lysozyme): 11.23 ± 3.36 days; Death number(piece) ([1]; 2 mg/ml atomization inspired, day 8): 2 piece; average survival day (day, x ± s) ([1]; 2 mg/ml atomization inspired, listed as gene recombinant human lysozyme): 12.93 ± 2.05 days; average survival day (day, x ± s) ([1]; 2 mg/ml atomization inspired, listed as recombinant human lysozyme): 12.93 ± 2.05 days; result of pathology detection of the mice lung tissue ([1]; high dose 2 mg/ml, 14th day): normal basically; result of pathology detection of the mice trachea ([1]; high dose 2 mg/ml, 14th day): Normal basically; result of pathology detection of the mice lung tissue ([1]; low dose 0.5 mg/ml, 14th day): bronchiole alveolar wall tissue gently thickening, few; result of pathology detection of the mice lung tissue ([1]; medium dose 1 mg/ml, 7th day): few monocaryon infiltrating; bacterial number ([1]; atomization inspired 0.5 (15000 u/piece), 0 day): 350 ± 21.5 CFU/mL; bacterial number ([1]; atomization inspired 1 (30000 u/piece), the 5th day): 78.30 ± 17.86**^ΔΔ CFU/mL; bacterial number ([1]; atomization inspired 2 (60000 u/piece), 0 day): 350 ± 21.5 CFU/mL; 95% feasible limits of ED50 ([1]; mice survival over 14 days, Bliss method): 200 to 900 µg/mL; ED50 (median effective dose) ([1]; mice survival over 14 days, Bliss method, atomization inspired): 530 µg/mL; average survival day (day, x ± s) [2, 5]: 9.30 ± 4.08 days; accumulative survival number [2, 6]: 12; survival rate (%) [2, 6]: 40.0%; Death number(piece) ([2]; 0.25 mg/ml atomization inspired, day 1): 0 piece; Death number(piece) ([2]; 0.25 mg/ml atomization inspired, day 2): 0 piece; Death number(piece) ([2]; 0.25 mg/ml atomization inspired, day 3): 1 piece; Death number(piece) ([2]; 0.25 mg/ml atomization inspired, day 4): 2 piece; Death number(piece) ([2]; 0.25 mg/ml atomization inspired, day 5): 3 piece; Death number(piece) ([2]; 0.25 mg/ml atomization inspired, day 6): 3 piece; Death number(piece) ([2]; 0.25 mg/ml atomization inspired, day 7): 5 piece; Death number(piece) ([2]; 0.25 mg/ml atomization inspired, day 8): 4 piece; Death number(piece) ([2]; 0.25 mg/ml atomization inspired, day 9): 0 piece; Death number(piece) ([2]; 0.25 mg/ml atomization inspired, day 10): 0 piece; Death number(piece) ([2]; 0.25 mg/ml atomization inspired, day 11): 0 piece; Death number(piece) ([2]; 0.25 mg/ml atomization inspired, day 12): 0 piece; Death number(piece) ([2]; 0.25 mg/ml atomization inspired, day 13): 0 piece; Death number(piece) ([2]; 0.25 mg/ml atomization inspired, day 14): 0 piece; survival elevation rate (%) [2, 5]: 23.3%; average survival day (day, x ± s) ([2]; 0.5 mg/ml atomization inspired): 10.3 ± 3.77***^Δ day; accumulative survival number [2, 7]: 14; survival rate (%) [2, 7]: 46.7%; Death number(piece) ([2]; 0.5 mg/ml atomization inspired, day 1): 0 piece; Death number(piece) ([2]; 0.5 mg/ml atomization inspired, day 2): 0 piece; Death number(piece) ([2]; 0.5 mg/ml atomization inspired, day 3): 0 piece; Death number(piece) ([2]; 0.5 mg/ml atomization inspired, day 4): 2 piece; Death number(piece) ([2]; 0.5 mg/ml atomization inspired, day 5): 2 piece; Death number(piece) ([2]; 0.5 mg/ml atomization inspired, day 6): 3 piece; Death number(piece) ([2]; 0.5 mg/ml atomization inspired, day 8): 5 piece; Death number(piece) ([2]; 0.5 mg/ml atomization inspired, day 9): 0 piece; Death number(piece) ([2]; 0.5 mg/ml atomization inspired, day 10): 0 piece; Death number(piece) ([2]; 0.5 mg/ml atomization inspired, day 11): 0 piece; Death number(piece) ([2]; 0.5 mg/ml atomization inspired, day 12): 0 piece; Death number(piece) ([2]; 0.5 mg/ml atomization inspired, day 13): 0 piece; Death number(piece) ([2]; 0.5 mg/ml atomization inspired, day 14): 0 piece; survival elevation rate (%) ([2]; 0.5 mg/ml atomization inspired): 30.0%; survival rate ([2]; 1 mg/ml atomization inspired, 14 days): 56.7%; average survival day (day, x ± s) ([2]; 2 mg/ml atomization inspired): 12.93 ± 2.05***^ΔΔΔ day

Source: patent publication US20080031868A1, “HUMAN LYSOZYME MEDICINE, ITS MANUFACTURING METHOD AND APPLICATION THEREOF” (priority 2005, published 2008)
